Measurements as given in PubChem BioAssay (NCI).
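Compound exposure: 48 hours, 5 concentrations, 96-well plates. GI50 marks 50% less growth. TGI is the concentration that stops growth completely.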

Assays:
Assay in all cases: growth of human tumour cells (NCI), 48 h
786-0 renal = system: 786-0 renal
A498 renal = system: A498 renal
A549 NSCLC = system: A549 NSCLC
ACHN renal = system: ACHN renal
BT-549 breast = system: BT-549 breast
CAKI-1 renal = system: CAKI-1 renal
CCRF-CEM leukemia = system: CCRF-CEM leukemia
COLO 205 colon = system: COLO 205 colon
DU-145 prostate = system: DU-145 prostate
EKVX NSCLC = system: EKVX NSCLC
HCC-2998 colon = system: HCC-2998 colon
HCT-116 colon = system: HCT-116 colon
HCT-15 colon = system: HCT-15 colon
HL-60(TB) leukemia = system: HL-60(TB) leukemia
HOP-62 NSCLC = system: HOP-62 NSCLC
HOP-92 NSCLC = system: HOP-92 NSCLC
HS 578T breast = system: HS 578T breast
HT29 colon = system: HT29 colon
IGROV1 ovarian = system: IGROV1 ovarian
K-562 leukemia = system: K-562 leukemia
KM12 colon = system: KM12 colon
LOX IMVI melanoma = system: LOX IMVI melanoma
M14 melanoma = system: M14 melanoma
MALME-3M melanoma = system: MALME-3M melanoma
MCF7 breast = system: MCF7 breast
MDA-MB-231 breast = system: MDA-MB-231 breast
MDA-MB-435 = system: MDA-MB-435
MDA-MB-468 breast = system: MDA-MB-468 breast
MOLT-4 leukemia = system: MOLT-4 leukemia
NCI-H226 lung = system: NCI-H226 lung
NCI-H23 lung = system: NCI-H23 lung
NCI-H460 lung = system: NCI-H460 lung
NCI-H522 lung = system: NCI-H522 lung
NCI/ADR-RES ovarian = system: NCI/ADR-RES ovarian
OVCAR-3 ovarian = system: OVCAR-3 ovarian
OVCAR-4 ovarian = system: OVCAR-4 ovarian
OVCAR-5 ovarian = system: OVCAR-5 ovarian
OVCAR-8 ovarian = system: OVCAR-8 ovarian
PC-3 prostate = system: PC-3 prostate
RPMI-8226 leukemia = system: RPMI-8226 leukemia
RXF 393 renal = system: RXF 393 renal
SF-268 CNS = system: SF-268 CNS
SF-295 CNS = system: SF-295 CNS
SF-539 CNS = system: SF-539 CNS
SK-MEL-2 melanoma = system: SK-MEL-2 melanoma
SK-MEL-28 melanoma = system: SK-MEL-28 melanoma
SK-MEL-5 melanoma = system: SK-MEL-5 melanoma
SK-OV-3 ovarian = system: SK-OV-3 ovarian
SN12C renal = system: SN12C renal
SNB-19 CNS = system: SNB-19 CNS
SNB-75 CNS = system: SNB-75 CNS
SR leukemia = system: SR leukemia
SW-620 colon = system: SW-620 colon
T-47D breast = system: T-47D breast
TK-10 renal = system: TK-10 renal
U251 CNS = system: U251 CNS
UACC-257 melanoma = system: UACC-257 melanoma
UACC-62 melanoma = system: UACC-62 melanoma
UO-31 renal = system: UO-31 renal

CN1CCN(c2ccc(C(=O)/C=C/c3ccc(OC(F)F)cc3)cc2)CC1
GI50 (786-0 renal): 15.3 µM | TGI (786-0 renal): 39.6 µM | GI50 (A498 renal): 14.2 µM | TGI (A498 renal): 27.8 µM | GI50 (A549 NSCLC): 11.7 µM | TGI (A549 NSCLC): 25.8 µM | GI50 (ACHN renal): 14.8 µM | TGI (ACHN renal): 27.9 µM | GI50 (BT-549 breast): 13 µM | TGI (BT-549 breast): 29 µM | GI50 (CAKI-1 renal): 13.9 µM | TGI (CAKI-1 renal): 27.2 µM | GI50 (CCRF-CEM leukemia): 4.3 µM | TGI (CCRF-CEM leukemia): 37.7 µM | GI50 (COLO 205 colon): 14.2 µM | TGI (COLO 205 colon): 30.9 µM | GI50 (DU-145 prostate): 13.6 µM | TGI (DU-145 prostate): 26.7 µM | GI50 (EKVX NSCLC): 13.1 µM | TGI (EKVX NSCLC): 25.8 µM | GI50 (HCC-2998 colon): 3.76 µM | TGI (HCC-2998 colon): 14 µM | GI50 (HCT-116 colon): 2.87 µM | TGI (HCT-116 colon): > 100 µM | GI50 (HCT-15 colon): 6.88 µM | TGI (HCT-15 colon): 19.7 µM | GI50 (HL-60(TB) leukemia): 4.7 µM | TGI (HL-60(TB) leukemia): 33.4 µM | GI50 (HOP-62 NSCLC): 15.4 µM | TGI (HOP-62 NSCLC): 30.4 µM | GI50 (HOP-92 NSCLC): 6.21 µM | TGI (HOP-92 NSCLC): 20.9 µM | GI50 (HS 578T breast): 14.9 µM | TGI (HS 578T breast): 46.2 µM | GI50 (HT29 colon): 3.41 µM | TGI (HT29 colon): 15.3 µM | GI50 (IGROV1 ovarian): 12.1 µM | TGI (IGROV1 ovarian): 25.2 µM | GI50 (K-562 leukemia): 2.8 µM | TGI (K-562 leukemia): > 100 µM | GI50 (KM12 colon): 5.2 µM | TGI (KM12 colon): 22.1 µM | GI50 (LOX IMVI melanoma): 3.53 µM | TGI (LOX IMVI melanoma): 13 µM | GI50 (M14 melanoma): 12.3 µM | TGI (M14 melanoma): 38.6 µM | GI50 (MALME-3M melanoma): 13.1 µM | TGI (MALME-3M melanoma): 25.8 µM | GI50 (MCF7 breast): 2.74 µM | TGI (MCF7 breast): 11 µM | GI50 (MDA-MB-231 breast): 13.5 µM | TGI (MDA-MB-231 breast): 26.3 µM | GI50 (MDA-MB-435): 3 µM | TGI (MDA-MB-435): 10.7 µM | GI50 (MDA-MB-468 breast): 3.52 µM | TGI (MDA-MB-468 breast): 14.5 µM | GI50 (MOLT-4 leukemia): 11.6 µM | TGI (MOLT-4 leukemia): 54.9 µM | GI50 (NCI-H226 lung): 10.8 µM | TGI (NCI-H226 lung): 24.3 µM | GI50 (NCI-H23 lung): 11.8 µM | TGI (NCI-H23 lung): 24.3 µM | GI50 (NCI-H460 lung): 14.4 µM | TGI (NCI-H460 lung): 30.1 µM | GI50 (NCI-H522 lung): 15.4 µM | TGI (NCI-H522 lung): 32.3 µM | GI50 (NCI/ADR-RES ovarian): 13.9 µM | TGI (NCI/ADR-RES ovarian): 27.3 µM | GI50 (OVCAR-3 ovarian): 12.1 µM | TGI (OVCAR-3 ovarian): 25.5 µM | GI50 (OVCAR-4 ovarian): 14.4 µM | TGI (OVCAR-4 ovarian): 33.8 µM | GI50 (OVCAR-5 ovarian): 14.8 µM | TGI (OVCAR-5 ovarian): 28.1 µM | GI50 (OVCAR-8 ovarian): 14.2 µM | TGI (OVCAR-8 ovarian): 27.8 µM | GI50 (PC-3 prostate): 10.3 µM | TGI (PC-3 prostate): 26.5 µM | GI50 (RPMI-8226 leukemia): 2.6 µM | TGI (RPMI-8226 leukemia): 9.85 µM | GI50 (RXF 393 renal): 4.34 µM | TGI (RXF 393 renal): 17.4 µM | GI50 (SF-268 CNS): 18 µM | TGI (SF-268 CNS): 41.3 µM | GI50 (SF-295 CNS): 12.3 µM | TGI (SF-295 CNS): 24.7 µM | GI50 (SF-539 CNS): 12.3 µM | TGI (SF-539 CNS): 24.7 µM | GI50 (SK-MEL-2 melanoma): 16.6 µM | TGI (SK-MEL-2 melanoma): 31.9 µM | GI50 (SK-MEL-28 melanoma): 15.3 µM | TGI (SK-MEL-28 melanoma): 28.6 µM | GI50 (SK-MEL-5 melanoma): 8.94 µM | TGI (SK-MEL-5 melanoma): 21.1 µM | GI50 (SK-OV-3 ovarian): 13.9 µM | TGI (SK-OV-3 ovarian): 27.6 µM | GI50 (SN12C renal): 13.5 µM | TGI (SN12C renal): 26.3 µM | GI50 (SNB-19 CNS): 14.7 µM | TGI (SNB-19 CNS): 27.9 µM | GI50 (SNB-75 CNS): 4.85 µM | TGI (SNB-75 CNS): 20.3 µM | GI50 (SR leukemia): 1.96 µM | TGI (SR leukemia): > 100 µM | GI50 (SW-620 colon): 4.98 µM | TGI (SW-620 colon): 18.5 µM | GI50 (T-47D breast): 15.5 µM | TGI (T-47D breast): 38.4 µM | GI50 (TK-10 renal): 14.8 µM | TGI (TK-10 renal): 29.6 µM | GI50 (U251 CNS): 9.79 µM | TGI (U251 CNS): 27.5 µM | GI50 (UACC-257 melanoma): 13.8 µM | TGI (UACC-257 melanoma): 27.2 µM | GI50 (UACC-62 melanoma): 14 µM | TGI (UACC-62 melanoma): 27 µM | GI50 (UO-31 renal): 11 µM | TGI (UO-31 renal): 23 µM
